Among the data in patent US7902373B2 (Pfizer Inc, priority 2006, dated 2011) are IC50 values, retold here.

This assay deals with human recombinant H-PGDS (Homo sapiens, UniProt O60760). Nature of the assay: Fluorescence intensity h-PGDS TBA enzyme assay. The format is biochemical. The settings on record: Examples up to 622 (and 3a, 3b).
Sequence of human recombinant H-PGDS (O60760 whole entry): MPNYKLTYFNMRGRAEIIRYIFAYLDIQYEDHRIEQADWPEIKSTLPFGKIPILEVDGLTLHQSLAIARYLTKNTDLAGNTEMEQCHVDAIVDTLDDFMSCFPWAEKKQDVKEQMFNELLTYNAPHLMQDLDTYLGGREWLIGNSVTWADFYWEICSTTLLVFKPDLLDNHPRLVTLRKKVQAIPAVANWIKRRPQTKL

In general, IC50 refers to the concentration needed to halve the response being measured. Take `O=C(NC1CCN(Cc2c[nH]nc2-c2ccccc2)CC1)c1ccc(-c2cccc(F)c2)nc1` [Example 182, 6-(3-Fluorophenyl)-N-{1-[(3-phenyl-1H-pyrazol-4-yl)methyl]piperidin-4-yl}nicotinamide]: the IC50 is 0.424 nM.

For the compound `O=C(NC1CCN(Cc2c[nH]c3cc(F)ccc23)CC1)c1ccc(-c2cccc(F)c2)nc1` [Example 183, N-{1-[(6-Fluoro-1H-indol-3-yl)methyl]piperidin-4-yl}-6-(3-fluorophenyl)nicotinamide], the IC50 turned out to be 1.12 nM.

Take `COc1cc(CN2CCC(NC(=O)c3ccc(-c4cccc(F)c4)nc3)CC2)ccc1OC(C)C` [Example 184, 6-(3-Fluorophenyl)-N-[1-(4-isopropoxy-3-methoxybenzyl)piperidin-4-yl]nicotinamide]: the IC50 worked out at 3.67 nM.

Consider `CCn1cc(CN2CCC(NC(=O)c3ccc(-c4cccc(F)c4)nc3)CC2)cn1` [Example 185, N-{1-[(1-Ethyl-1H-pyrazol-4-yl)methyl]piperidin-4-yl}-6-(3-fluorophenyl)nicotinamide], for which the IC50 was determined as 11 nM.

As for `O=C(NC1CCN(CC2CCC=CO2)CC1)c1ccc(-c2cccc(F)c2)nc1` (stereo not drawn) [Example 186, N-[1-(3,4-Dihydro-2H-pyran-2-ylmethyl)piperidin-4-yl]-6-(3-fluorophenyl)nicotinamide], the IC50 was determined as 1.79 nM.

On to `O=C(NC1CCN(Cc2c[nH]nc2-c2ccc(F)cc2)CC1)c1ccc(-c2cccc(F)c2)nc1` [Example 187, 6-(3-Fluorophenyl)-N-(1-{[3-(4-fluorophenyl)-1H-pyrazol-4-yl]methyl}piperidin-4-yl)nicotinamide], for which the IC50 was 2.59 nM.

Take `O=C(NC1CCN(Cc2cccc(-c3ccccn3)c2)CC1)c1ccc(-c2cccc(F)c2)nc1` [Example 188, 6-(3-Fluorophenyl)-N-[1-(3-pyridin-2-ylbenzyl)piperidin-4-yl]nicotinamide]: the IC50 came out at 2.25 nM.

As to `O=C(NC1CCN(Cc2ccnc3ccccc23)CC1)c1ccc(-c2cccc(F)c2)nc1` [Example 189, 6-(3-Fluorophenyl)-N-[1-(quinolin-4-ylmethyl)piperidin-4-yl]nicotinamide], the IC50 is 0.502 nM.

For `O=C(NC1CCN(Cc2c[nH]cn2)CC1)c1ccc(-c2cccc(F)c2)nc1` [Example 190, 6-(3-Fluorophenyl)-N-[1-(1H-imidazol-5-ylmethyl)piperidin-4-yl]nicotinamide], the IC50 is 1.83 nM.

Take `Cn1cc(Cl)c(CN2CCC(NC(=O)c3ccc(-c4cccc(F)c4)nc3)CC2)n1` [Example 191, N-{1-[(4-Chloro-1-methyl-1H-pyrazol-3-yl)methyl]piperidin-4-yl}-6-(3-fluorophenyl)nicotinamide]: the IC50 was found to be 0.171 nM.

Take `COc1cc(CN2CCC(NC(=O)c3ccc(-c4cccc(F)c4)nc3)CC2)ccc1F` [Example 192, N-[1-(4-Fluoro-3-methoxybenzyl)piperidin-4-yl]-6-(3-fluorophenyl)nicotinamide]: the IC50 is 0.701 nM.

Take `O=C(NC1CCN(Cc2ccc(F)c(F)c2)CC1)c1ccc(-c2cccc(F)c2)nc1` [Example 193, N-[1-(3,4-difluorobenzyl)piperidin-4-yl]-6-(3-fluorophenyl)nicotinamide]: the IC50 worked out at 0.768 nM.

With `O=C(CN1CCC(NC(=O)c2ccc(-c3cccc(F)c3)nc2)CC1)c1ccccc1` [Example 194, 6-(3-Fluorophenyl)-N-[1-(2-oxo-2-phenylethyl)piperidin-4-yl]nicotinamide], the IC50 worked out at 3.5 nM.

As to `Cn1nc(-c2ccccc2)c(CN2CCC(NC(=O)c3ccc(-c4cccc(F)c4)nc3)CC2)c1Cl` [Example 195, N-{1-[(5-Chloro-1-methyl-3-phenyl-1H-pyrazol-4-yl)methyl]piperidin-4-yl}-6-(3-fluorophenyl)nicotinamide], the IC50 was 0.194 nM.

For `Cn1cc(CN2CCC(NC(=O)c3ccc(-c4cccc(F)c4)nc3)CC2)cn1` [Example 196, 6-(3-Fluorophenyl)-N-{1-[(1-methyl-1H-pyrazol-4-yl)methyl]piperidin-4-yl}nicotinamide], the concentration for half-maximal inhibition (IC50) came out at 1.35 nM.

For `O=C(NC1CCN(Cc2cccc3cccnc23)CC1)c1ccc(-c2cccc(F)c2)nc1` [Example 197, 6-(3-Fluorophenyl)-N-[1-(quinolin-8-ylmethyl)piperidin-4-yl]nicotinamide], the IC50 was 0.578 nM.

Regarding `O=C(NC1CCN(Cc2cccc(-c3cnccn3)c2)CC1)c1ccc(-c2cccc(F)c2)nc1` [Example 198, 6-(3-Fluorophenyl)-N-[1-(3-pyrazin-2-ylbenzyl)piperidin-4-yl]nicotinamide], the IC50 is 1.04 nM.

As to `CCCCc1nc(CN2CCC(NC(=O)c3ccc(-c4cccc(F)c4)nc3)CC2)c[nH]1` [Example 199, N-{1-[(2-Butyl-1H-imidazol-4-yl)methyl]piperidin-4-yl}-6-(3-fluorophenyl)nicotinamide], the half-maximal inhibitory concentration (IC50) came to 2.7 nM.

In the case of `O=C(NC1CCN(Cc2ccc3c(c2)OCCCO3)CC1)c1ccc(-c2cccc(F)c2)nc1` [Example 200, N-[1-(3,4-Dihydro-2H-15-benzodioxepin-7-ylmethyl)piperidin-4-yl]-6-(3-fluorophenyl)nicotinamide], the IC50 is 1.61 nM.

For `O=C(NC1CCN(Cc2ccc(-c3ccccn3)cc2)CC1)c1ccc(-c2cccc(F)c2)nc1` [Example 201, 6-(3-Fluorophenyl)-N-[1-(4-pyridin-2-ylbenzyl)piperidin-4-yl]nicotinamide], the IC50 stood at 1.93 nM.

As for `Cc1ccc(CN2CCC(NC(=O)c3ccc(-c4cccc(F)c4)nc3)CC2)cc1F` [Example 202, N-[1-(3-Fluoro-4-methylbenzyl)piperidin-4-yl]-6-(3-fluorophenyl)nicotinamide], the IC50 amounted to 1.17 nM.

Take `CC(C)(C)OC(=O)NC1(CN2CCC(NC(=O)c3ccc(-c4cccc(F)c4)nc3)CC2)CC1` [Example 203, tert-Butyl(1-{[4-({[6-(3-fluorophenyl)pyridin-3-yl]carbonyl}amino)piperidin-1-yl]methyl}cyclopropyl)carbamate]: the IC50 is 2.17 nM.

Turning to `COc1ccc(CN2CCC(NC(=O)c3ccc(-c4cccc(F)c4)nc3)CC2)cc1Cl` [Example 204, N-[1-(3-Chloro-4-methoxybenzyl)piperidin-4-yl]-6-(3-fluorophenyl)nicotinamide], the IC50 is 0.067 nM.

Regarding `COc1ccc(OC)c(CN2CCC(NC(=O)c3ccc(-c4cccc(F)c4)nc3)CC2)c1` [Example 205, N-[1-(2,5-Dimethoxybenzyl)piperidin-4-yl]-6-(3-fluorophenyl)nicotinamide], the IC50 came out at 0.238 nM.

Take `CC(C)Oc1cccc(CN2CCC(NC(=O)c3ccc(-c4cccc(F)c4)nc3)CC2)c1` [Example 206, 6-(3-Fluorophenyl)-N-[1-(3-isopropoxybenzyl)piperidin-4-yl]nicotinamide]: the IC50 was 1.84 nM.

Take `Cn1c(CN2CCC(NC(=O)c3ccc(-c4cccc(F)c4)nc3)CC2)cc2ccccc21` [Example 207, 6-(3-Fluorophenyl)-N-{1-[(1-methyl-1H-indol-2-yl)methyl]piperidin-4-yl}nicotinamide]: the IC50 was determined as 1.59 nM.

For `CCc1ncc(CN2CCC(NC(=O)c3ccc(-c4cccc(F)c4)nc3)CC2)[nH]1` [Example 208, N-{1-[(2-Ethyl-1H-imidazol-5-yl)methyl]piperidin-4-yl}-6-(3-fluorophenyl)nicotinamide], the IC50 turned out to be 5.98 nM.
